Experimental data taken from patent publication US5639783A, “Ketone derivatives” (Mitsubishi Chemical Corporation, priority 1991, dated 1997).
Like-named read-outs stand apart in the source and are kept apart here.

Columns and labels:
Assay type in all cases: biochemical
papain = biological target: T1, papain (Carica papaya, UniProt P00784); assay: Thiol protease inhibitory activity, papain (P-3125, Sigma)
T1 sequence (P00784 134-345): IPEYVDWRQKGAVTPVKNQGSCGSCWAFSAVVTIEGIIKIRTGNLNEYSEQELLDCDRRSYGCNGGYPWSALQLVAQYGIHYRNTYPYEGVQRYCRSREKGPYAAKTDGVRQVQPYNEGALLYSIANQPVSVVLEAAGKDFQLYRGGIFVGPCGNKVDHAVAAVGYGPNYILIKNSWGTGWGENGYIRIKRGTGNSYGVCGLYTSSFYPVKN
Method: (§1) Inhibitory activity against papain (P-3125, Sigma) and cathepsin B (C-6286, Sigma) was assayed according to the method described in a literature [Biochemical Journal, 201, 189 (1982)]. Cathepsin L was purified from rat kidney according to the method in a literature [Journal of Biochemistry, 100, 35 (1986)], and the inhibitory activity against it was assayed in the same manner as described in the above literature for cathepsin B. Furthermore, m-calpain was purified from rat brain according to a known method [Journal of Biological Chemistry, 254, p. 3210 (1984)] and the inhibitory activity against it was assayed by a method described in a literature [Journal of Biological Chemistry, 259, 12489 (1984)]. It is evident from Tables 3 and 4 that the compounds of the present invention have a potent inhibitory activity against thiol proteases such as papain, cathepsin B, cathepsin L or m-calpain.

cathepsin B = biological target: T2, cathepsin B (Bos taurus, UniProt P07688); assay: Thiol protease inhibitory activity, cathepsin B (C-6286, Sigma); conditions: Table 3
T2 construct: purchased Sigma C-6286
Method: as §1

m-calpain = biological target: T3, m-calpain (Rattus norvegicus, UniProt Q07009); assay: Thiol protease inhibitory activity, m-calpain purified from rat brain
T3 construct: m-calpain was purified from rat brain; from tissue; host or cells: rat brain
T3 sequence (Q07009 20-700 limits assumed): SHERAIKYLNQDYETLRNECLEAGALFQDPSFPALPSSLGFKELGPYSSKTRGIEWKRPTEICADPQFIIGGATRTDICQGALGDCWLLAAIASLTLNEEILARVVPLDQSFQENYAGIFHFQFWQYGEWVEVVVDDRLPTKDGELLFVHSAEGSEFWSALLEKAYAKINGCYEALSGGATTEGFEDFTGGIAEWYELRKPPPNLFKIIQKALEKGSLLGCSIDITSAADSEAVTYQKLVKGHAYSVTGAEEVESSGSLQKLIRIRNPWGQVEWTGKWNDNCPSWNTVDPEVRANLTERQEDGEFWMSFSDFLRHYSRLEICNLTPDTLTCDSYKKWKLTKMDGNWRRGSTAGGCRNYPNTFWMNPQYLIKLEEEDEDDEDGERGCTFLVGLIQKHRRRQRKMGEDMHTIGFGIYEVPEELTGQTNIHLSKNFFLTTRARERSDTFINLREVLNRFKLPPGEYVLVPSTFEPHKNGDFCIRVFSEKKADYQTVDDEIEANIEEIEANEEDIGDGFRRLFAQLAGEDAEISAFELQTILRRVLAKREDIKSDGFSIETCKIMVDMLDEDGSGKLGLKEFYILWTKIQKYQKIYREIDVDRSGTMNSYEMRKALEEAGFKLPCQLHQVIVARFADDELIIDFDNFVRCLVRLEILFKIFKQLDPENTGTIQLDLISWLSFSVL
T3 sequence (Q64537 1-270 partner): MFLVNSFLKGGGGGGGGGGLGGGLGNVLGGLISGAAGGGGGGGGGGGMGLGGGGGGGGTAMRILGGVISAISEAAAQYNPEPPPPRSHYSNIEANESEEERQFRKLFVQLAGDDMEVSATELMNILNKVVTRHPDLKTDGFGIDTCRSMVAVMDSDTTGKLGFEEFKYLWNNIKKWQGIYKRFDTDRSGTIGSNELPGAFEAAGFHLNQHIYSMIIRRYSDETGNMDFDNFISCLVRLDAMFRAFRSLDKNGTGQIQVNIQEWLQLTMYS
Method: as §1

Structure (SMILES) | IC50 (m-calpain; Table 4) | further results
CCCC[C@H](NC(=O)[C@H](CC(C)C)NC(=O)OCC1CCCCC1)C(=O)CSCc1ccco1 [21 (No. 46), (s)-3-((s)-2-cyclohexylmethoxycarbonylamino-4-methylvalerylamino)-1-furfurylthio-2-heptanone] |  | IC50 (papain; Table 3, read-out: IC50 papain): 130 nM; IC50 (cathepsin B): 140 nM; IC50 (m-calpain; Table 3): 4700 nM
CCCC[C@H](NC(=O)[C@H](CC(C)C)NC(=O)Cc1ccccc1)C(=O)CSCc1ccco1 [30 (No. 66), (s)-1-furfurylthio-3-((s)-4-methyl-2-phenylacetylaminovalerylamino)-2-heptanone] |  | IC50 (papain): 150 nM; IC50 (cathepsin B): 590 nM; IC50 (m-calpain; Table 3): 5100 nM
CCCC[C@H](NC(=O)[C@H](CC(C)C)NC(=O)COc1ccccc1Cl)C(=O)CSCc1ccco1 [39 (No. 88), (s)-3-[(s)-2-(2-chlorophenoxyacetylamino)-4-methylvalerylamino]-1-furfurylthio-2-heptanone] |  | IC50 (papain; Table 3, read-out: IC50 papain): 250 nM; IC50 (cathepsin B): 290 nM; IC50 (m-calpain; Table 3): 2200 nM
CCCC[C@H](NC(=O)[C@H](CC(C)C)NC(=O)COc1cccc2ccccc12)C(=O)CSCc1ccco1 [52 (No. 114), (s)-1-furfurylthio-3-[-(s)-4-methyl-2-(1-naphtoxyacetylamino)valerylamino]-2-heptanone] |  | IC50 (papain; Table 3, read-out: IC50 papain): 340 nM; IC50 (cathepsin B): 820 nM; IC50 (m-calpain; Table 3): 2500 nM
CCCC[C@H](NC(=O)[C@H](CC(C)C)NC(=O)c1ccc(F)c(F)c1F)C(=O)CSCc1ccco1 [64 (No. 126), (s)-1-furfurylthio-3-[(s)-4-methyl-2-(2,3,4-trifluorobenzoylamino)valerylamino]-2-heptanone] | 4300 nM | 
CCCC[C@H](NC(=O)[C@H](CC(C)C)NC(=O)c1c(F)ccc(F)c1F)C(=O)CSCc1ccco1 [65 (No. 128), (s)-1-furfurylthio-3-[(s)-4-methyl-2-(2,3,6-trifluorobenzoylamino)valerylamino]-2-heptanone] | 5000 nM | 
CCCC[C@H](NC(=O)[C@H](CC(C)C)NC(=O)c1ccccc1C)C(=O)CSCc1ccco1 [69 (No. 140), (s)-1-furfurylthio-3-[(s)-4-methyl-2-(2-toluoylamino)valerylamino]-2-heptanone] | 5000 nM | 
CCCC[C@H](NC(=O)[C@H](CC(C)C)NC(=O)COc1cccc(OC)c1)C(=O)CSCc1ccco1 [78 (No. 103), (s)-1-furfurylthio-3-[(s)-2-(3-methoxyphenoxyacetylamino)-4-methylvalerylamino]-2-heptanone] | 6000 nM | 
CCCC[C@H](NC(=O)[C@H](CC(C)C)NC(=O)c1cc2cccc(F)c2o1)C(=O)CSCc1ccco1 [93 (No. 182), (s)-3-[(s)-2-(7-fluoro-2-benzofuranylcarbonylamino)-4-methylvalerylamino]-1-furfurylthio-2-heptanone] | 7800 nM | 
CCCC[C@H](NC(=O)[C@H](CC(C)C)NC(=O)OCc1ccccc1)C(=O)CSCc1ccncc1 [107 (No. 230), (s)-3-((s)-2-benzyloxycarbonylamino-4-methylvalerylamino)-1-(4-pyridylmethylthio)-2-heptanone] | 4200 nM | 
CC(C)C[C@H](NC(=O)OCc1ccccc1)C(=O)N[C@@H](Cc1ccccc1)C(=O)CSCc1ccco1 [139 (No. 297), (s)-3-((s)-2-benzyloxycarbonylamino-4-methylvalerylamino)-1-furfurylthio-4-phenyl-2-butanone] | 4500 nM | 
CC(C)C[C@H](NC(=O)OCc1ccccc1)C(=O)N[C@@H](Cc1ccccc1)C(=O)CSCc1ccc(Cl)s1 [183 (No. 423), (s)-3-((s)-2-benzyloxycarbonylamino-4-methylvalerylamino)-1-(5-chloro-2-thienylmethylthio)-4-phenyl-2-butanone] | 9600 nM | 
CC(C)C[C@H](NC(=O)OCc1ccccc1)C(=O)N1CCC[C@H]1C(=O)CSCc1ccco1 [Ref. Ex. No. 3, (s)-1-((s)-2-benzyloxycarbonylamino-4-methylvaleryl)-2-furfurylthioacetylpyrrolidine, reference compound] | > 100000 nM | 

Continued, in another order:

IC50 (m-calpain; Table 4) | Structure (SMILES) | further results
1400 nM | CCCC[C@H](NC(=O)[C@H](CC(C)C)NC(=O)c1cc(F)c(F)c(F)c1)C(=O)CSCc1ccco1 [66 (No. 130), (s)-1-furfurylthio-3-[(s)-4-methyl-2-(3,4,5-trifluorobenzoylamino)valerylamino]-2-heptanone] | 
2100 nM | CCCC[C@H](NC(=O)[C@H](CC(C)C)NC(=O)c1cc(F)c(F)c(F)c1F)C(=O)CSCc1ccco1 [67 (No. 132), (s)-1-furfurylthio-3-[(s)-4-methyl-2-(2,3,4,5-tetrafluorobenzoylamino)valerylamino]-2-heptanone] | 
2100 nM | CCCC[C@H](NC(=O)[C@H](CC(C)C)NC(=O)c1c(F)c(F)c(F)c(F)c1F)C(=O)CSCc1ccco1 [68 (No. 135), (s)-1-furfurylthio-3-((s)-4-methyl-2-pentafluorobenzoylaminovalerylamino)-2-heptanone] | 
4200 nM | CCCC[C@H](NC(=O)[C@H](CC(C)C)NC(=O)c1ccc(C)cc1)C(=O)CSCc1ccco1 [71 (No. 142), (s)-1-furfurylthio-3-[(s)-4-methyl-2-(4-toluoylamino)valerylamino]-2-heptanone] | 
1200 nM | CCCC[C@H](NC(=O)[C@H](CC(C)C)NC(=O)c1ccccc1OC)C(=O)CSCc1ccco1 [77 (No. 151), (s)-1-furfurylthio-3-[(s)-2-(2-methoxybenzoylamino)-4-methylvalerylamino]-2-heptanone] | 
1900 nM | CCCC[C@H](NC(=O)[C@H](CC(C)C)NC(=O)c1ccc(OC)cc1)C(=O)CSCc1ccco1 [79 (No. 153), (s)-1-furfurylthio-3-[(s)-2-(4-methoxybenzoylamino)-4-methylvalerylamino]-2-heptanone] | 
4200 nM | CCCC[C@H](NC(=O)[C@H](CC(C)C)NC(=O)c1cc(OC)cc(OC)c1)C(=O)CSCc1ccco1 [80 (No. 155), (s)-3-[(s)-2-(3,5-dimethoxybenzoylamino)-4-methylvalerylamino]-1-furfurylthio-2-heptanone] | 
3400 nM | CCCC[C@H](NC(=O)[C@H](CC(C)C)NC(=O)c1ccc(C(=O)OC)cc1)C(=O)CSCc1ccco1 [81 (No. 157), (s)-1-furfurylthio-3-[(s)-2-(4-methoxycarbonylbenzoylamino)-4-methylvalerylamino]-2-heptanone] | 
2100 nM | CCCC[C@H](NC(=O)[C@H](CC(C)C)NC(=O)C=Cc1ccc(OC)cc1)C(=O)CSCc1ccco1 [84 (No. 165), (s)-1-furfurylthio-3-[(s)-2-(4-methoxycinnamoylamino)-4-methylvalerylamino]-2-heptanone] | 
1300 nM | CCCC[C@H](NC(=O)[C@H](CC(C)C)NC(=O)C=Cc1ccc(OC)cc1OC)C(=O)CSCc1ccco1 [85 (No. 166)] | 
1300 nM | CCCC[C@H](NC(=O)[C@H](CC(C)C)NC(=O)OCc1ccccc1)C(=O)CSCc1ccccn1 [105 (No. 226), (s)-3-((s)-2-benzyloxycarbonylamino-4-methylvalerylamino)-1-(2-pyridylmethylthio)-2-heptanone] | 
3100 nM | CCCC[C@H](NC(=O)[C@H](CC(C)C)NC(=O)OCc1ccccc1)C(=O)CSCc1cccnc1 [106 (No. 228), (s)-3-((s)-2-benzyloxycarbonylamino-4-methylvalerylamino)-1-(3-pyridylmethylthio)-2-heptanone] | 
